Data: PubChem BioAssay AID2060483 (Molecular Pharmacology Branch, DTP, NCI, 2025)

Test system: K24384-001-R-PDC complex spheroids, viability
Assay: Anticancer human tumor K24384-001-R-PDC patient-derived pancreatic adenocarcinoma cell line growth inhibition [GQUAD]
Conditions: for IC50: curve of first compound; for viability, T/C: stronger effect = lower value; active = viability on the fitted dose curve at most 10% of control; inactive = the rest
Outline: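 Tumor cells were grown as complex spheroids with HUVEC endothelial cells and mesenchymal stem cells as stroma. G-quadruplex stabilizers were combined with targeted agents over half-log dilutions from near the clinical Cmax, or from 10 microM.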

[1] = second compound 0.0316 µM, first compound 0.0316 µM
[2] = second compound 0.0316 µM, first compound 0.316 µM
[3] = second compound 0.1 µM, first compound 0.0316 µM
[4] = second compound 0.1 µM, first compound 0.316 µM
[5] = second compound 0.316 µM, first compound 0.0316 µM
[6] = second compound 0.316 µM, first compound 0.316 µM
[7] = second compound 1 µM, first compound 0.0316 µM
[8] = second compound 1 µM, first compound 0.316 µM
[9] = second compound 3.16 µM, first compound 0.0316 µM
[10] = second compound 3.16 µM, first compound 0.316 µM
[11] = second compound 10 µM, first compound 0.0316 µM
[12] = second compound 10 µM, first compound 0.316 µM
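Note: spheroids exposed to compounds for seven days.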

Cn1ncnc1[C@H]1c2n[nH]c(=O)c3cc(F)cc(c23)N[C@@H]1c1ccc(F)cc1 + Cc1cnc(CNC(=O)c2c(=O)c3ccc(N4CCCN(C)CC4)nc3n3c2sc2ccccc23)cn1
> 316 nM: IC50 (second compound 0.0316 µM) | IC50 (second compound 0.1 µM) | IC50 (second compound 0.316 µM)
< 0.999 nM: IC50 (second compound 1 µM) | IC50 (second compound 3.16 µM) | IC50 (second compound 10 µM)
inactive: viability, T/C (second compound 0.0316 µM, first compound 0.000999 µM) 93.1% | viability, T/C (second compound 0.0316 µM, first compound 0.00316 µM) 80.8% | viability, T/C (second compound 0.0316 µM, first compound 0.00999 µM) 92.5% | viability, T/C [1] 81.9% | viability, T/C (second compound 0.0316 µM, first compound 0.0999 µM) 87.2% | viability, T/C [2] 105% | viability, T/C (second compound 0.1 µM, first compound 0.000999 µM) 69.1% | viability, T/C (second compound 0.1 µM, first compound 0.00316 µM) 76% | viability, T/C (second compound 0.1 µM, first compound 0.00999 µM) 53.6% | viability, T/C [3] 68.6% | viability, T/C (second compound 0.1 µM, first compound 0.0999 µM) 72.8% | viability, T/C [4] 86.9% | viability, T/C (second compound 0.316 µM, first compound 0.000999 µM) 52.5% | viability, T/C (second compound 0.316 µM, first compound 0.00316 µM) 63.1% | viability, T/C (second compound 0.316 µM, first compound 0.00999 µM) 50.6% | viability, T/C [5] 50.5% | viability, T/C (second compound 0.316 µM, first compound 0.0999 µM) 53.5% | viability, T/C [6] 58.1% | viability, T/C (second compound 1 µM, first compound 0.000999 µM) 44.6% | viability, T/C (second compound 1 µM, first compound 0.00316 µM) 50.3% | viability, T/C (second compound 1 µM, first compound 0.00999 µM) 43.6% | viability, T/C [7] 48.6% | viability, T/C (second compound 1 µM, first compound 0.0999 µM) 62.6% | viability, T/C [8] 42% | viability, T/C (second compound 3.16 µM, first compound 0.000999 µM) 43.4% | viability, T/C (second compound 3.16 µM, first compound 0.00316 µM) 45.2% | viability, T/C (second compound 3.16 µM, first compound 0.00999 µM) 43.5% | viability, T/C [9] 44.7% | viability, T/C (second compound 3.16 µM, first compound 0.0999 µM) 47.8% | viability, T/C [10] 39% | viability, T/C (second compound 10 µM, first compound 0.000999 µM) 42.8% | viability, T/C (second compound 10 µM, first compound 0.00316 µM) 40.2% | viability, T/C (second compound 10 µM, first compound 0.00999 µM) 37.7% | viability, T/C [11] 46.3% | viability, T/C (second compound 10 µM, first compound 0.0999 µM) 26.6% | viability, T/C [12] 32.8%

Nc1ccn(C2OC(CO)C(O)C2(F)F)c(=O)n1 (centres undefined) + CN(C)c1ccc(Nc2c3ccc(NC(=O)CCN4CCCC4)cc3nc3cc(NC(=O)CCN4CCCC4)ccc23)cc1
152 nM: IC50 (second compound 0.316 µM)
118 nM: IC50 (second compound 10 µM)
157 nM: IC50 (second compound 0.1 µM)
144 nM: IC50 (second compound 3.16 µM)
238 nM: IC50 (second compound 0.0316 µM)
111 nM: IC50 (second compound 1 µM)
inactive: viability, T/C [1] 73.4% | viability, T/C (second compound 0.0316 µM, first compound 0.1 µM) 66.5% | viability, T/C [2] 40.9% | viability, T/C (second compound 0.0316 µM, first compound 1 µM) 35.9% | viability, T/C (second compound 0.0316 µM, first compound 3.16 µM) 23.1% | viability, T/C (second compound 0.0316 µM, first compound 10 µM) 21.4% | viability, T/C [3] 78.1% | viability, T/C (second compound 0.1 µM, first compound 0.1 µM) 57.2% | viability, T/C [4] 38.2% | viability, T/C (second compound 0.1 µM, first compound 1 µM) 30.8% | viability, T/C (second compound 0.1 µM, first compound 3.16 µM) 19.8% | viability, T/C (second compound 0.1 µM, first compound 10 µM) 19.8% | viability, T/C [5] 68.1% | viability, T/C (second compound 0.316 µM, first compound 0.1 µM) 56.6% | viability, T/C [6] 38.7% | viability, T/C (second compound 0.316 µM, first compound 1 µM) 30.3% | viability, T/C (second compound 0.316 µM, first compound 3.16 µM) 20.6% | viability, T/C (second compound 0.316 µM, first compound 10 µM) 17.2% | viability, T/C [7] 71.9% | viability, T/C (second compound 1 µM, first compound 0.1 µM) 49.9% | viability, T/C [8] 39.2% | viability, T/C (second compound 1 µM, first compound 1 µM) 24.4% | viability, T/C (second compound 1 µM, first compound 3.16 µM) 19.9% | viability, T/C (second compound 1 µM, first compound 10 µM) 16.8% | viability, T/C [9] 76.5% | viability, T/C (second compound 3.16 µM, first compound 0.1 µM) 57.6% | viability, T/C [10] 33.7% | viability, T/C (second compound 3.16 µM, first compound 1 µM) 23.3% | viability, T/C (second compound 3.16 µM, first compound 3.16 µM) 18.6% | viability, T/C (second compound 3.16 µM, first compound 10 µM) 15.6% | viability, T/C [11] 63.6% | viability, T/C (second compound 10 µM, first compound 0.1 µM) 54.1% | viability, T/C [12] 32.8% | viability, T/C (second compound 10 µM, first compound 1 µM) 27.9% | viability, T/C (second compound 10 µM, first compound 3.16 µM) 18.3% | viability, T/C (second compound 10 µM, first compound 10 µM) 18.2%
